Experimental data taken from US9504722B2, “Anti-obese compositions containing holoptelea integrifolia extracts” (Laila Nutraceuticals, priority 2007, dated 2016).

Legend:
[1] = test system: Sprague-Dawley rats on high fat diet; test: Protective effect against diet induced obesity in rats; format: in vivo, rat; conditions: 7 mg/kg body weight, 8 weeks, vs control group
Protocol: Protective Effect of Holoptelea integrifolia Against Diet Induced Obesity in Rats.
Selected healthy Sprague-Dawley rats were randomly assigned to control or various treatment groups (n=6). All the animals allocated for protective phase of the study were on dietary intervention by feeding high fat diet ad libitum and the animals allocated to treatment groups were simultaneously given oral administration of 100 mg or 250 mg/kg Holoptelea integrifolia methanol extract in 10 mL of 0.5% CMC, using gastric tube for the entire 8 week study duration. The test animals of the control group were simultaneously given 10 ml/kg of 0.5% CMC. Sibutramine (7 mg/kg body weight) was used as a positive control. Food and water consumption were recorded daily, body weights were recorded weekly and fasting blood samples were collected before initiation, after 4th week and 8th week (termination) of the study. The weight gain is plotted against the study duration in weeks (FIG. I). […] Upon administration of Holoptelea integrifolia alcohol extract for a period of 60 days, the level of triglyceride in the obese rats was reduced by 50% compared to the control. The levels of serum cholesterol and LDL were reduced by 40% and 45% respectively, whereas the level of HDL was increased by 25%.

[2] = test system: diet induced obese Sprague-Dawley rats; test: Anti-obese activity in diet induced obese rats (therapeutic); format: in vivo, rat; conditions: 7 mg/kg body weight, 5 weeks after 8 weeks high fat diet, vs control group
Protocol: Anti-Obese Activity of Holoptelea integrifolia in Diet Induced Obese Rats.
Selected healthy Sprague-Dawley rats were randomly assigned to control or various treatment groups (n=6). All the animals allocated for the study were made obese through dietary intervention by feeding high fat diet ad libitum for 8 weeks. After 8 weeks, the treatment group of animals was given oral administration of 250 mg/kg or 500 mg/kg of Holoptelea integrifolia alcohol extract in 10 mL of 0.5% CMC, using gastric tube for 5 week study duration. Sibutramine (7 mg/kg body weight) is used as a positive control. The control group of animals were given 10 ml/kg of 0.5% CMC. Food and water consumption were recorded daily, body weights were recorded weekly and fasting blood samples were collected before initiation after 5th week of the study. The weight gain for different groups compared at weekly intervals (FIG. II).

CC(C)CC(N(C)C)C1(c2ccc(Cl)cc2)CCC1 (centres unmarked) [Sibutramine]
reduction in weight gain [1]: 30.5% | reduction in weight gain [2]: 123.1%
